These results are taken from patent publication US5750523A, “Pyridazinone derivatives” (Nissan Chemical Industries, Ltd., priority 1994, dated 1998).

Assay [1] concerns Rabbit PRP (platelet aggregation). The assay is described as follows: Antiplatelet aggregation effect, rabbit platelet rich plasma (PRP). The assay is classed as cell-based, male Japanese white rabbits. The settings on record: 37° C., 2 minutes incubation, Table III. The procedure:
(§1) Blood was collected from the abdominal aortae of male Wister rats (weight: 200 to 300 g) or male Japanese white rabbits (weight: 1.8 to 2.5 kg) into a syringe containing 1/10 volume 3.8% sodium citrate. The blood thus obtained was centrifuged at 200×g for 7 minutes at room temperature to obtain platelet rich plasma (PRP). Furthermore, the residue was centrifuged at 2000×g for 10 minutes to obtain platelet poor plasma (PPP). The measurement was effected by diluting PRP and PPP to 300,000/mm^3. PRP and PPP were put in cuvettes, and the measurement range of transmittance was adjusted to 0% in the case of PRP and to 100% in the case of PPP. Thereafter, a test sample drug dissolved in 100% dimethyl sulfoxide (DMSO) was added to PRP (the final concentration of DMSO: 0.25%). After incubation at 37° C. and 900 rpm for 2 minutes, an aggregating agent was added to measure an aggregation curve. The antiplatelet aggregation effect of the test sample drug was expressed by a concentration, IC50 (μM), at which the aggregation of control sample was 50% inhibited. The aggregating agents ADP and collagen were used at minimum concentrations (ADP: 5 to 10 μM: collagen : 2.5 to 10 μg/ml) which caused maximum aggregation. The measurement of platelet aggregation was carried out by using NBS HEMA TRACER 601.
(§2) Tables II and III show antiplatelet aggregation effects of test compounds evaluated as IC50 values (μM).
As a comparative compound, the following compound disclosed in reference (d) was used. [drawing 20]

For assay [2], the system named is rabbit thoracic aorta ring specimen. Nature of the assay: Vasodilation effect, relaxation of phenylephrine contraction of rabbit thoracic aorta ring. The following applies: Oryctolagus cuniculus; contraction by phenylephrine 10^-5 M; cumulative administration from 3×10^-9 M; papaverine hydrochloride 10^-4 M = 100%; Table IV. The procedure:
By using a rabbit thoracic aorta ring specimen, the relaxation effect of a test sample drug on contraction by phenylephrine (10^-5 M) was evaluated. A test sample drug was administered cumulatively from a concentration of 3×10^-9 M, after the contraction became stable. The results were expressed on the basis that the relaxation effect of papaverine hydrochloride (10^-4 M) was 100%.
The comparative compound was the same as in Test Example 1.

In assay [3] the test system is Rat PRP (platelet aggregation). The assay is described as follows: Antiplatelet aggregation effect, rat platelet rich plasma (PRP). It counts as cell-based, male Wister rats. The following applies: 37° C., 2 minutes incubation, Table II. The procedure:
as §1, §2

Where [4] appears, read: Oryctolagus cuniculus, Platelet, 2 min, aggregating agent ADP 5 to 10 μM, read-out: Rabbit PRP IC50, ADP.
Setting [5] is: Oryctolagus cuniculus, Platelet, 2 min, aggregating agent collagen 2.5 to 10 μg/ml, read-out: Rabbit PRP IC50, Collagen.
[6] abbreviates: Rattus norvegicus, Platelet, 2 min, aggregating agent ADP 5 to 10 μM, read-out: Rat PRP IC50, ADP.

Counter-ions that a name gives are not always drawn. Like-named read-outs stand apart in the source and are kept apart here.

What is called IC50 is the point on the concentration scale where inhibition reaches its midpoint. For the molecule `O=C1CCc2cc(OCCCCc3nnnn3C3CCCCC3)ccc2N1` [Cilostazol, reference compound], the values for the IC50 in assay [1] (setting [4]) and in assay [1] (setting [5]) were 15000 nM and 2400 nM, respectively.

By EC50 is commonly meant the concentration needed to bring the measured effect to its halfway point. Lower therefore signals higher potency in that assay. As to `O=c1[nH]nc(OCCCc2ccc(Cl)cc2)c(NCc2cccnc2)c1Br` [Comparative Compound, reference compound], the IC50 in assay [1] (setting [4]) turned out to be 81 nM; in assay [1] (setting [5]), 17 nM. In addition, the EC50 in assay [2] came to 400 nM.

Regarding `O=c1[nH]nc(OCCC(O)c2ccc(Cl)cc2)c(NCc2cccnc2)c1Br` (centres unmarked) [Compound No. 1, 4-bromo-6-[3-(4-chlorophenyl)-3-hydroxypropyloxy]-5-(3-pyridylylmethylamino)-3(2H)pyridazinone], the IC50 in assay [1] (setting [4]) was 50 nM; in assay [1] (setting [5]) it was 10 nM; in assay [3] (setting [6]) it was 230 nM; in assay [3] (aggregating agent collagen 2.5 to 10 μg/ml, read-out: Rat PRP IC50, Collagen) it was 99 nM. Further, the concentration for a half-maximal effect (EC50) in assay [2] turned out to be 1300 nM.

For the molecule `COc1ccc(CNc2c(OCCC(O)c3ccc(Cl)cc3)n[nH]c(=O)c2Br)cc1OC` (centres unmarked) [Compound No. 2, 4-bromo-6-[3-(4-chlorophenyl)-3-hydroxypropyloxy]-5-(3,4-dimethoxybenzylamino)-3(2H)pyridazinone], the IC50 in assay [1] (setting [4]) is 41 nM; in assay [1] (setting [5]) it was 20 nM; in assay [3] (setting [6]) it was 72 nM; in assay [3] (Rattus norvegicus, Platelet, 2 min, aggregating agent collagen 2.5 to 10 μg/ml, read-out: Rat PRP IC50, Collagen), 190 nM.

Regarding `O=c1[nH]nc(OCCC(O)c2ccc(Cl)cc2)c(NCc2cccnc2)c1Br` (centres unmarked) [Compound No. 65, 4-bromo-6-[3-(4-chlorophenyl)-3-hydroxypropyloxy]-5-(3-pyridylylmethylamino)-3(2H)pyridazinone hydrochloride], the IC50 in assay [1] (aggregating agent ADP 5 to 10 μM, hydrochloride, read-out: Rabbit PRP IC50, ADP) was 53 nM; in assay [1] (aggregating agent collagen 2.5 to 10 μg/ml, hydrochloride, read-out: Rabbit PRP IC50, Collagen) it was 19 nM; in assay [3] (aggregating agent ADP 5 to 10 μM, hydrochloride, read-out: Rat PRP IC50, ADP), 210 nM; in assay [3] (aggregating agent collagen 2.5 to 10 μg/ml, hydrochloride, read-out: Rat PRP IC50, Collagen), 220 nM.

In the case of `O=c1[nH]nc(OCC[C@@H](O)c2ccc(Cl)cc2)c(NCc2cccnc2)c1Br` [Compound No. 93, 4-bromo-6-[(3R)-3-(4-chlorophenyl)-3-hydroxylpropyloxy]-5-(3-pyridylylmethylamino)-3(2H)pyridazinone hydrochloride], the IC50 in assay [1] (setting [4]) was 47 nM; in assay [1] (setting [5]), 9.7 nM.
